Results taken from ChEMBL document CHEMBL4382223, “Design, synthesis and biological evaluation of anthranilamide derivatives as potential factor Xa (fXa) inhibitors” (Bioorg Med Chem, 2018).
Active and inactive are the calls of the source. The calls are words filed in the database; no cut-off is given here.

Key:
Coagulation factor X = Coagulation factor X (Homo sapiens, UniProt P00742); experiment: Inhibition of human factor Xa using S-2222 as substrate preincubated for 30 mins followed by substrate addition and measured for 20 mins
Sequence of Coagulation factor X (P00742 41-179 limits assumed): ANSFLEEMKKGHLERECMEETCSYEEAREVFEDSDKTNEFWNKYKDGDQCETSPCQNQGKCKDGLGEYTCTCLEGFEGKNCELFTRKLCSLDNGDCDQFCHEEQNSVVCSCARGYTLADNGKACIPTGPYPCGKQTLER
Sequence of Coagulation factor X (P00742 235-488 limits assumed): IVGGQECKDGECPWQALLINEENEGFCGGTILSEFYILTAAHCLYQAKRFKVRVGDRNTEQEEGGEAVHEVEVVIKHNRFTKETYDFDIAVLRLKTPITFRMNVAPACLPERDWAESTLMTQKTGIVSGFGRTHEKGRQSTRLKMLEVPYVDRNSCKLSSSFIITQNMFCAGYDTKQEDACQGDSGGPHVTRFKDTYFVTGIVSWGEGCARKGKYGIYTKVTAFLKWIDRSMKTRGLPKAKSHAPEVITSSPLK

Plasma [1] = experiment: Anticoagulant activity in citrated rabbit plasma assessed as concentration required to double prothrombin time after 10 mins by coagulometric analysis; assay type: functional, Oryctolagus cuniculus
Plasma [2] = experiment: Anticoagulant activity in citrated rabbit plasma assessed as concentration required to double activated partial thromboplastin time after 10 mins by coagulometric analysis; assay type: functional, Oryctolagus cuniculus
Rattus norvegicus [3] = experiment: Antithrombotic activity in rat model of arteriovenous shunt thrombosis assessed as reduction thrombus weight at 1 mg/kg, po dosed 90 mins before shunt was opened for 15 mins relative to untreated control; assay type: functional; set-up: scale not given: the % may be the effect or the level left
[4] = Cmax in Sprague-Dawley rat at 3 mg/kg, po by LC-MS analysis; assay type: ADME, organism-based; set-up: dose 3 mg/kg, route oral; details: in vivo
[5] = Elimination half life in Sprague-Dawley rat at 1 mg/kg, iv by LC-MS analysis; assay type: ADME, organism-based; details: in vivo
Prothrombin = Prothrombin (Homo sapiens, UniProt P00734); experiment: Inhibition of human recombinant thrombin expressed in HEK293 cells using S-2238 as substrate preincubated for 30 mins followed by substrate addition and measured for 20 mins; assay type: single protein
Rattus norvegicus [6] = experiment: Antithrombotic activity in rat model of FeCl3-induced venous thrombosis assessed as reduction thrombus weight at 1 mg/kg, po dosed 60 mins before thrombus formation relative to untreated control; assay type: functional; set-up: scale not given: the % may be the effect or the level left
Rattus norvegicus [7] = experiment: Antithrombotic activity in rat model of FeCl3-induced venous thrombosis assessed as reduction thrombus weight at 5 mg/kg, po dosed 60 mins before thrombus formation relative to untreated control; assay type: functional; set-up: scale not given: the % may be the effect or the level left
Rattus norvegicus [8] = experiment: Antithrombotic activity in rat model of FeCl3-induced venous thrombosis assessed as reduction thrombus weight at 10 mg/kg, po dosed 60 mins before thrombus formation relative to untreated control; assay type: functional; set-up: scale not given: the % may be the effect or the level left
Rattus norvegicus [9] = experiment: Antithrombotic activity in rat model of arteriovenous shunt thrombosis assessed as reduction thrombus weight at 5 mg/kg, po dosed 90 mins before shunt was opened for 15 mins relative to untreated control; assay type: functional; set-up: scale not given: the % may be the effect or the level left
Rattus norvegicus [10] = experiment: Antithrombotic activity in rat model of arteriovenous shunt thrombosis assessed as reduction thrombus weight at 10 mg/kg, po dosed 90 mins before shunt was opened for 15 mins relative to untreated control; assay type: functional; set-up: scale not given: the % may be the effect or the level left
[11] = Toxicity in rat assessed as prolongation of tail bleeding dosed orally 60 mins before tails of anesthetized rat were transected and measured over 30 mins; assay type: organism-based; details: in vivo, po, 0.5 h
[12] = Toxicity in rat assessed as prolongation of tail bleeding at 1 to 10 mg/kg, po dosed 60 mins before tails of anesthetized rat were transected and measured over 30 mins; assay type: organism-based; details: in vivo, 0.5 h
[13] = Tmax in Sprague-Dawley rat at 3 mg/kg, po by LC-MS analysis; assay type: ADME, organism-based; details: in vivo
[14] = Elimination half life in Sprague-Dawley rat at 3 mg/kg, po by LC-MS analysis; assay type: ADME, organism-based; details: in vivo, read-out: beta t1/2 (converted)
[15] = AUC (0 to infinity) in Sprague-Dawley rat at 3 mg/kg, po by LC-MS analysis; assay type: ADME, organism-based; set-up: dose 3 mg/kg, route oral, time infinity; details: in vivo
[16] = AUC (0 to infinity) in Sprague-Dawley rat at 1 mg/kg, iv by LC-MS analysis; assay type: ADME, organism-based; set-up: dose 1 mg/kg, time infinity, route intravenous; details: in vivo
[17] = Plasma clearance in Sprague-Dawley rat at 1 mg/kg, iv by LC-MS analysis; assay type: ADME, organism-based; details: in vivo
[18] = Volume of distribution at steady state in Sprague-Dawley rat at 1 mg/kg, iv by LC-MS analysis; assay type: ADME, organism-based; details: in vivo
[19] = Oral bioavailability in Sprague-Dawley rat at 3 mg/kg by LC-MS analysis; assay type: ADME, organism-based; details: in vivo
H9c2 = experiment: Cytoprotective activity against hypoxia/reoxygenation-induced toxicity in rat H9c2 cells assessed as increase in cell viability at 1 to 10 uM by MTT assay; assay type: functional, cell-based
Coagulation factor IX = Coagulation factor IX (Homo sapiens, UniProt P00740); experiment: Inhibition of human factor 9a preincubated for 30 mins followed by substrate addition and measured for 20 mins
Sequence of Coagulation factor IX (P00740 47-191 limits assumed): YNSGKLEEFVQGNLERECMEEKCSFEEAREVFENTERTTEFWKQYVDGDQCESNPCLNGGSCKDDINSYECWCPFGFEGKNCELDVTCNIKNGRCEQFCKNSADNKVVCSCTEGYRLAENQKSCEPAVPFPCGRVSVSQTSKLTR
Sequence of Coagulation factor IX (P00740 227-461 limits assumed): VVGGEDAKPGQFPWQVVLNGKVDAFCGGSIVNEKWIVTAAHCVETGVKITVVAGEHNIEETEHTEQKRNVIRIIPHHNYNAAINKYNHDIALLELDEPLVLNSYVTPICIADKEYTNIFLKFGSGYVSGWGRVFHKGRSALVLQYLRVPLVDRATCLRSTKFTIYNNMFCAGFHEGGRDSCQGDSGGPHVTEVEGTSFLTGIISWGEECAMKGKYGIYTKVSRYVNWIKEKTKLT

Trypsin = Trypsin (Homo sapiens, UniProt P07477+P07478+P35030); experiment: Inhibition of human trypsin preincubated for 30 mins followed by substrate addition and measured for 20 mins; assay type: protein assay
Homo sapiens [20] = species on record: Homo sapiens; experiment: Selectivity ratio of IC50 for human recombinant thrombin expressed in HEK293 cells to IC50 for human factor Xa; assay type: cell-based
Coagulation factor VII = biological target: T1, Coagulation factor VII (Homo sapiens, UniProt P08709); experiment: Inhibition of human factor 7a preincubated for 30 mins followed by substrate addition and measured for 20 mins
T1 sequence (P08709 whole entry): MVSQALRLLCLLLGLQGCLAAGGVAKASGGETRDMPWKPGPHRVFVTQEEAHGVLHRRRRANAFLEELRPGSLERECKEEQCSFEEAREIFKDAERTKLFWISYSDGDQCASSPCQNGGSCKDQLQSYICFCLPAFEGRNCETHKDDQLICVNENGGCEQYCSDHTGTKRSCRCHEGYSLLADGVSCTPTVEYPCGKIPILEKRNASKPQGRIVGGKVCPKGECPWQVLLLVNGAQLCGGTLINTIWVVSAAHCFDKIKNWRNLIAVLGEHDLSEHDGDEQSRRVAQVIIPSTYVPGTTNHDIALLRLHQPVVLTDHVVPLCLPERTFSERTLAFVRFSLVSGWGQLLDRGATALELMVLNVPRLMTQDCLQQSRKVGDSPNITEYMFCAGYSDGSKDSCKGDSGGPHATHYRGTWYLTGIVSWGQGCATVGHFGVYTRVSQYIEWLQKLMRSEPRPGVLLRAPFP

Homo sapiens [21] = species on record: Homo sapiens; experiment: Selectivity ratio of IC50 for human factor 7a to IC50 for human factor Xa
Homo sapiens [22] = species on record: Homo sapiens; experiment: Selectivity ratio of IC50 for human factor 9a to IC50 for human factor Xa
Homo sapiens [23] = species on record: Homo sapiens; experiment: Selectivity ratio of IC50 for human trypsin to IC50 for human factor Xa
Rattus norvegicus [24] = experiment: Antithrombotic activity in rat model of FeCl3-induced venous thrombosis dosed orally 60 mins before thrombus formation; assay type: functional, organism-based
Rattus norvegicus [25] = experiment: Antithrombotic activity in rat model of arteriovenous shunt thrombosis dosed orally 90 mins before shunt was opened for 15 mins; assay type: functional, organism-based

COc1ccc(NC(=O)c2ccc(N3CCOCC3=O)cc2)c(C(=O)Nc2ccc(C(C)(C)C)cc2)c1
IC50 (Coagulation factor X): 2090 nM

COc1ccc(NC(=O)c2cc(OC)ccc2NC(=O)c2ccc(N3CCOCC3=O)cc2)cc1
IC50 (Coagulation factor X): 77 nM

COc1ccc(NC(=O)c2ccc(N3CCCCC3=O)cc2)c(C(=O)Nc2ccc(C(C)(C)C)cc2)c1
IC50 (Coagulation factor X): 272 nM

COc1cccc(NC(=O)c2cc(OC)ccc2NC(=O)c2nc3c(s2)CN(C)CC3)c1
IC50 (Coagulation factor X): 981 nM

COc1ccc(NC(=O)c2nc3c(s2)CN(C)CC3)c(C(=O)Nc2ccc(C)cc2)c1
IC50 (Coagulation factor X): 30 nM

COc1ccc(NC(=O)c2nc3c(s2)CN(C)CC3)c(C(=O)Nc2cccc(Cl)c2)c1
IC50 (Coagulation factor X): 315 nM

COc1ccc(NC(=O)c2ccc(C(=N)N(C)C)cc2)c(C(=O)Nc2ccc(Cl)cn2)c1 [BETRIXABAN]
2PT (Plasma [1]): 2.4 µM
2aPTT (Plasma [2]): 1.1 µM
Activity (Rattus norvegicus [3]): 24%
Cmax [4]: 146 ng/mL
beta t1/2 [5]: 7.8 h
IC50 (Prothrombin): 18000 nM
Activity (Rattus norvegicus [6]): 27%
Activity (Rattus norvegicus [7]): 38%
Activity (Rattus norvegicus [8]): 59%
Activity (Rattus norvegicus [9]): 43%
Activity (Rattus norvegicus [10]): 61%
Activity [11]: Dose-dependent effect
Activity [12]: Toxic
Tmax [13]: 2.6 h
half-life [14]: 8.6 h
AUC [15]: 571 ng·h/mL
AUC [16]: 1832 ng·h/mL
CL [17]: 22.7 mL/min/kg
Vdss [18]: 0.191 L/kg
F [19]: 30.2%
Activity (H9c2): inactive

C#Cc1ccc(NC(=O)c2cc(OC)ccc2NC(=O)c2nc3c(s2)CN(C)CC3)cc1
IC50 (Coagulation factor X): 20 nM

COc1ccc(NC(=O)c2nc3c(s2)CN(C)CC3)c(C(=O)Nc2ccc(Cl)cn2)c1
2PT (Plasma [1]): 0.8 µM
IC50 (Coagulation factor IX): 36000 nM
IC50 (Trypsin): 9100 nM
Ratio IC50 (Homo sapiens [20]): > 1000
2aPTT (Plasma [2]): 0.5 µM
Activity (Rattus norvegicus [3]): 30%
Cmax [4]: 221 ng/mL
beta t1/2 [5]: 8.8 h
IC50 (Coagulation factor X): 3.5 nM
IC50 (Prothrombin): 4200 nM
IC50 (Coagulation factor VII): 12000 nM
Ratio IC50 (Homo sapiens [21]): > 1000
Ratio IC50 (Homo sapiens [22]): > 1000
Ratio IC50 (Homo sapiens [23]): > 1000
Activity (Rattus norvegicus [24]): Dose-dependent effect
Activity (Rattus norvegicus [25]): Dose-dependent effect
Activity (Rattus norvegicus [6]): 23%
Activity (Rattus norvegicus [7]): 36%
Activity (Rattus norvegicus [8]): 54%
Activity (Rattus norvegicus [9]): 50%
Activity (Rattus norvegicus [10]): 67%
Activity [11]: Dose-dependent effect
Activity [12]: Toxic
Tmax [13]: 3.2 h
half-life [14]: 9.6 h
AUC [15]: 1160 ng·h/mL
AUC [16]: 2258 ng·h/mL
CL [17]: 15.3 mL/min/kg
Vdss [18]: 0.201 L/kg
F [19]: 51.3%
Activity (H9c2): Active

COc1ccc(NC(=O)c2ccc(N3CCOCC3=O)cc2)c(C(=O)Nc2ccc(Cl)cc2)c1
IC50 (Coagulation factor X): 18 nM

COc1ccc(NC(=O)c2ccc(N3CCCC3=O)cc2)c(C(=O)Nc2ccc(Cl)cc2)c1
IC50 (Coagulation factor X): 653 nM

COc1ccc(NC(=O)c2nc3c(s2)CN(C)CC3)c(C(=O)Nc2ccc(F)cn2)c1
IC50 (Coagulation factor X): 24 nM

COc1ccc(NC(=O)c2ccc(-n3ccccc3=O)cc2)c(C(=O)Nc2ccc(Cl)cc2)c1
IC50 (Coagulation factor X): 179 nM

COc1ccc(NC(=O)c2ccc(N3CCCCC3=O)cc2)c(C(=O)Nc2cccc(F)c2)c1
IC50 (Coagulation factor X): 45 nM

COc1ccc(NC(=O)c2nc3c(s2)CN(C)CC3)c(C(=O)Nc2ccc(C)cn2)c1
2PT (Plasma [1]): 5.6 µM
IC50 (Coagulation factor IX): 42000 nM
IC50 (Trypsin): 54000 nM
Ratio IC50 (Homo sapiens [20]): > 1000
2aPTT (Plasma [2]): 2.2 µM
IC50 (Coagulation factor X): 10 nM
IC50 (Prothrombin): 32000 nM
IC50 (Coagulation factor VII): 11000 nM
Ratio IC50 (Homo sapiens [21]): > 1000
Ratio IC50 (Homo sapiens [22]): > 1000
Ratio IC50 (Homo sapiens [23]): > 1000

COc1ccc(NC(=O)c2nc3c(s2)CN(C)CC3)c(C(=O)Nc2ccc(Cl)s2)c1
IC50 (Coagulation factor X): 1390 nM

COc1ccc(NC(=O)c2ccc(N3CCCCC3=O)cc2)c(C(=O)Nc2ccc(Cl)cc2)c1
IC50 (Coagulation factor X): 246 nM

O=C(NC[C@H]1CN(c2ccc(N3CCOCC3=O)cc2)C(=O)O1)c1ccc(Cl)s1
Activity (H9c2): Active

COc1ccc(NC(=O)c2ccc(N3CCCCC3=O)cc2)c(C(=O)Nc2ccc(F)cc2)c1
IC50 (Coagulation factor X): 1080 nM

COc1ccc(NC(=O)c2ccc(N3CCCCC3=O)cc2)c(C(=O)Nc2ccccc2OC)c1
IC50 (Coagulation factor X): 3190 nM

COc1ccc(NC(=O)c2ccc(N3CCOCC3=O)cc2)c(C(=O)Nc2ccccc2OC)c1
IC50 (Coagulation factor X): 1540 nM

COc1ccc(NC(=O)c2cc(OC)ccc2NC(=O)c2nc3c(s2)CN(C)CC3)cc1
IC50 (Coagulation factor X): 234 nM

COc1ccc(NC(=O)c2nc3c(s2)CN(C)CC3)c(C(=O)Nc2ccc(Cl)cc2)c1
2PT (Plasma [1]): 1.3 µM
IC50 (Coagulation factor IX): 26000 nM
IC50 (Trypsin): 18000 nM
Ratio IC50 (Homo sapiens [20]): > 1000
2aPTT (Plasma [2]): 0.8 µM
IC50 (Coagulation factor X): 4.8 nM
IC50 (Prothrombin): 7100 nM
IC50 (Coagulation factor VII): 4700 nM
Ratio IC50 (Homo sapiens [21]): > 1000
Ratio IC50 (Homo sapiens [22]): > 1000
Ratio IC50 (Homo sapiens [23]): > 1000

COc1ccc(NC(=O)c2cc(OC)ccc2NC(=O)c2ccc(N3CCCCC3=O)cc2)cc1
IC50 (Coagulation factor X): 513 nM
